Key:
[1] = test system: N2O emission from soil; experiment: Loss of nitrate and ammonium nitrogen in LiHof soil, pyraclostrobin and boscalid (Example 3); conditions: for Effect on N2O emission from soil (in words): LiHof soil, fertilizer applied 1 day after compound (A); for Loss of NO3-N + NH4-N in mg N/10 g soil in 48 h: soil type LiHof, pyraclostrobin 250 g/ha, boscalid 2.33 g/L, fertilizer 1 day after compound (A), UTC 0.52
[2] = test system: N2O emission from soil; experiment: Loss of nitrate and ammonium nitrogen in soil samples, Conway method, as indirect measure of N2O produced (Example 2); conditions: for Loss of NO3-N + NH4-N in mg N/10 g soil in 48 h: fertilizer 1 day after compound (A)
[3] = test system: N2O emission from soils; experiment: N2O emission from potted corn after pyraclostrobin seed treatment, NPK fertilizer applied 10 days later (Example 1); format: in vivo, Zea mays
[4] = test system: N2O emission from soils; experiment: Greenhouse trial: N2O emission from potted field soil planted with summer wheat (Example 4); format: in vivo; conditions: for Mean mg N2O-N/m^2: 4 weeks

## O=C(Nc1ccccc1-c1ccc(Cl)cc1)c1cccnc1Cl [Boscalid, boscalid]
[1]
  Effect on N2O emission from soil (in words): significantly reduced the N2O emission from soil
  Loss of NO3-N + NH4-N in mg N/10 g soil in 48 h: 0.35 mg N/10 g soil

## COC(=O)N(OC)c1ccccc1COc1ccn(-c2ccc(Cl)cc2)n1 [Pyraclostrobin, pyraclostrobin]
[2]; soil type LiHof, UTC 0.54
  Loss of NO3-N + NH4-N in mg N/10 g soil in 48 h: 0.06 mg N/10 g soil
[2]; soil type Sp 2.1, UTC 0.16
  Loss of NO3-N + NH4-N in mg N/10 g soil in 48 h: 0.03 mg N/10 g soil
[2]; soil type Sp 2.2, UTC 0.19
  Loss of NO3-N + NH4-N in mg N/10 g soil in 48 h: 0.02 mg N/10 g soil
[2]; soil type Sp 2.3, UTC 0.38
  Loss of NO3-N + NH4-N in mg N/10 g soil in 48 h: 0.18 mg N/10 g soil
[2]; soil type Sp 2.4, UTC 0.37
  Loss of NO3-N + NH4-N in mg N/10 g soil in 48 h: 0.13 mg N/10 g soil
[2]; soil type Sp 5M, UTC 0.27
  Loss of NO3-N + NH4-N in mg N/10 g soil in 48 h: 0.10 mg N/10 g soil
[2]; soil type Sp 6S, UTC 0.48
  Loss of NO3-N + NH4-N in mg N/10 g soil in 48 h: 0.21 mg N/10 g soil
[2]; various types of soil, fertilizer applied 1 day after compound (A)
  Effect on N2O emission from soil (in words): significantly reduce the N2O emission from soil
[1]
  Effect on N2O emission from soil (in words): significantly reduced the N2O emission from soil
  Loss of NO3-N + NH4-N in mg N/10 g soil in 48 h: 0.09 mg N/10 g soil
[3]; seed treatment 5 g/100 kg seeds, 0.3% NPK fertilizer HaKaPhos Blue applied on day 10, peak value on day 2 of three day measurement, N = 14, UTC 190
  N2O increase over ambient: 107 ppbv/h
[3]; seed treatment, fertilizer applied 10 days after compound (A)
  Effect on N2O emission from soils (in words): significantly reduce the N2O emission from soils
[4]; combined application of compound (A) and compound (B)
  Effect on N2O emission from soils (in words): does not result in a reduction of N2O emission from soils
[4]; pyraclostrobin 250 g/ha 8 days before the application of the fertilizer (ammonium nitrate 100 kg/ha)
  Mean mg N2O-N/m^2: 100.9 mg N2O-N/m^2
[4]; pyraclostrobin 250 g/ha together with the application of the fertilizer (ammonium nitrate 100 kg/ha)
  Mean mg N2O-N/m^2: 314.9 mg N2O-N/m^2
[4]; pyraclostrobin and ammonium nitrate with time lag of 8 days, compared to fertilizer alone or joint application
  Effect on N2O emission from soils (in words): significantly reduced
